# Results as given in patent US10242153B2, “Method for determining the risk profile of neoplastic tissue” (NOVAZOI THERANOSTICS, priority 2014, dated 2019).
# Tests used:
# [1] = system: MDA-MB-231 (231) cells; test: Peak subG1 fraction by flow cytometry (propidium iodide) after declustering drugs, 231 cells; format: cell-based, human
# Experimental: (§1) To evaluate the impact of putative declustering drugs on cell cycle progression and hypodiploidy (<2N DNA content, which may indicate apoptotic cells), MDA-MB-231 (231), PC3, and HeLa cells were treated with different concentrations of declustering drugs, stained with propidium iodide, labeled with anti-MPM2 antibody, and then assessed by flow cytometry at multiple time points over 48 hr. […] The duration, highest degree, and rapidity of onset of MA varied between drugs, drug concentrations, and cell lines (data not shown). In general, the maximum MA achieved was less pronounced in Nos- and PJ-treated cells. Drug-induced onset of MA was corroborated by substantial increases in cyclin B1 levels in all cell lines. For most cases, prolonged MA (˜24 hr in duration) was followed by a substantial increase in the subG1 population fraction. […] Instances where the subGl fraction was elevated without cleaved caspase-3 may either represent caspase-independent cell death or the presence of hypodiploid cells whose fate is unclear. In general, no consistent associations between the extent, duration, or timing of MA within drugs or across cell lines was found.
# [2] = system: HeLa cells; test: Peak subG1 fraction by flow cytometry after declustering drugs, HeLa cells; format: cell-based
# Experimental: as §1
# [3] = system: PC3 cells; test: Peak subG1 fraction by flow cytometry after declustering drugs, PC3 cells; format: cell-based
# Experimental: as §1
# [4] = system: adult human dermal fibroblasts (HDFs); test: Peak subG1 fraction after declustering drugs, non-malignant HDFs; format: cell-based; details: for Peak subG1 percents over 48 h: HDF
# Experimental: as §1
# (§2) To determine whether the CA-inducing activity of declustering drugs is restricted to cancer cells, two non-malignant cell lines, mammary fibrocystic (MCF10A) cells and adult human dermal fibroblasts (HDFs) were treated with these drugs. […] In comparison, 10 and 25 µM RBN increased peak CA over controls in interphase cells (p<0.001 and p=0.001, respectively), with the lower concentration dramatically augmenting peak CA to 56% of cells versus 15% for the higher dose (FIG. 13, panel B).
# In HDFs, all the drugs tested increased peak subG1 over controls in a significant fashion (p<0.01 for all) (Table 2). […] Thus, it appears that there may be clinically relevant therapeutic windows for these drugs depending on the type of cancer and the drug dosage.
# [5] = system: mammary fibrocystic (MCF10A) cells; test: Peak subG1 fraction after declustering drugs, non-malignant MCF10A cells; format: cell-based; details: for Peak subG1 percents over 48 h: MCF10A
# Experimental: as §1, §2
# Importantly, a therapeutic window exists for several of these agents at the concentrations and in the cell lines tested compared to cancer cells.
# [6] = system: 231 cells; test: Centrosome amplification (CA) by microscopy (γ-tubulin/centrin-2 foci), 231 cells; format: cell-based, human; details: 231 cells, 25 μM
# Experimental: Consequently, CA was assessed in cultures treated with different concentrations of declustering drugs for 6, 12, 18, or 24 h and untreated controls via microscopy. Centrosomes were identified by γ-tubulin and centrin-2 colocalization at discrete foci. […] The peak percent CA detected over 24 h is shown in FIG. 13 (only statistically significant (P<0.05) increases over control values are represented in the Figures). To better understand the “potency” of drug-induced CA with time, the average fold change in CA over controls over 24 h was assessed (FIG. 12, panel A), whereby the extent of CA across time points (i.e., 6, 12, 18, and 24 hr) was averaged and then divided by the extent of CA in control (i.e., 0 hr). All of the drugs at least doubled the peak extent of CA in all cell lines tested (FIG. 12, panel A), although the final extent of CA could be small or large in magnitude depending on the initial centrosomal burden as shown in FIG. 11. […] The peak extent in interphase HeLa cells was somewhat less at 30.7% and 48.1% for 10 and 25 μM RBN, respectively (FIG. 13, panel A). For Nos and BN, there was no major difference in CA levels in interphase versus mitotic cells.
# [7] = system: MCF10A cells; test: Centrosome amplification (CA) by microscopy, MCF10A cells; format: cell-based; details: interphase and mitotic MCF10A cells, both concentrations (10 and 25 μM), over 24 h
# Experimental: (§3) Consequently, CA was assessed in cultures treated with different concentrations of declustering drugs for 6, 12, 18, or 24 h and untreated controls via microscopy. Centrosomes were identified by γ-tubulin and centrin-2 colocalization at discrete foci.
# as §2
# [8] = system: adult human dermal fibroblasts (HDFs); test: Centrosome amplification (CA) by microscopy, HDFs; format: cell-based; details: HDFs, any of the concentrations or time points assessed
# Experimental: as §3, §2
# [9] = system: PLK4, Cyclin E, and Aurora A; test: Western blotting of markers of centrosome amplification; format: cell-based; details: 231 cells, 25 μM
# [10] = system: N1E-115 cells; test: Drug sensitivity (IC50) of N1E-115 cells; format: cell-based, murine; details: Mus musculus; N1E-115 cells (data not shown)
# [11] = system: N1E-115 cells; test: Interphase declustering index (DI) in N1E-115 cells; format: cell-based, murine; details: 6-h treatment, 25 interphase cells, drugs at their respective IC50 concentrations
# Experimental: To evaluate their effect on interphase clustering, N1E-115 cells were treated with these drugs at their respective IC50 concentrations for 0, 3, 6 and 9 h and co-immunostained for γ-tubulin and α-tubulin to evaluate centrosomal spread and microtubule nucleation status, respectively.
# Cell cycle phases were further evaluated via lamin A/C immunostaining to distinguish interphase declustering events from prophase centrosomal spread. To quantitate the spread of the interphase centrosomal cluster, a 3D reconstruction of z-stack images of 25 randomly-selected interphase cells from the 6-h treatment group of each drug were generated. By defining an ROI (region of interest) around the interphase centrosomal cluster, the volume of the cluster spread was calculated using Volocity software. Likewise, defining an ROI using the cell periphery provided the cell volume.
# [12] = system: N1E-115 cells; test: Neuritogenesis (neurite extension) in serum-starved N1E-115 cells; format: cell-based, murine; details: 48 h, PJ-34 10 μM, Paclitaxel 0.05 μM
# Experimental: N1E-115 cells grown in serum-starved (SS) medium were evaluated to determine the extent of neurite formation after 48 h of treatment with RedBr-Nos (5 μM), Griseofulvin (10 μM), PJ-34 (10 μM), Paclitaxel (0.05 μM) treatment or untreated control cells (i.e., serum-starved medium (SS) alone). Panels Ai and Aii depict quantitative bar graphs representing the average length of neurites and percentage of population of cells showing neurite length >10 μm, respectively. A hundred cells were counted in each case. […] Panel B depicts an immunoblot showing CLASP1 expression levels in control (C) and CLASP1 siRNA-transfected N1E-115 cells.
# Neuritogenesis is a process in nerve cells involving the extension of polarized, elongated neurites. N1E-115 cells usually extend only one major neurite per cell, which can vary in length from 5 to 500 μm. The growth cones of the neurites serve as primary focal points of motility. The effect of declustering agents on cell motility was evaluated by assessing the length and frequency of neurites formed in a serum-free medium on a laminin-coated surface.
# [13] = system: N1E-115 cells; test: Golgi (GM130) and γ-tubulin co-immunostaining of drug-treated N1E-115 cells; format: cell-based, murine; details: data not shown
# Source text: The Golgi, which is primarily responsible for posttranslational modification and protein sorting, also functions as a microtubule-organizing center (MTOC). It has been hypothesized that supernumerary centrosomes may better organize the Golgi to enhance directional cell migration. To investigate what happens to the Golgi upon declustering drug-induced dispersal of the interphase centrosomal cluster, drug-treated N1E-115 cells were co-immunostained with GM130 (a cis-Golgi matrix protein crucial for maintaining its structure) and γ-tubulin.
# [14] = system: N1E-115 cells; test: Vinculin localization in serum-starved N1E-115 cells; format: cell-based, murine; details: serum-starved (SS) cells
# Source text: Vinculin stabilizes cell-substrate contacts in neuronal cells undergoing neuritogenesis, while activation by actin-binding proteins mobilizes vinculin to focal adhesions. To determine the localization of vinculin in the neurite extensions and the effect of declustering agents on its localization, N1E-115 cells were immunostained cells for vinculin and stained F-actin using rhodamine-phalloidin.
smiles,measurement,setting,value
"COc1ccc2c(c1OC)C(=O)O[C@@H]2[C@H]1c2c(cc3c(c2OC)OCO3)CCN1C [Nos, noscapine]",Peak subG1 percents over 48 h,[1]; 10 μM,26.3%
same,Peak subG1 percents over 48 h,[1]; 25 μM,43.9%
same,Peak subG1 percents over 48 h,[2]; 10 μM,25.0%
same,Peak subG1 percents over 48 h,[2]; 25 μM,50.1%
same,Peak subG1 percents over 48 h,[3]; 10 μM,29.9%
same,Peak subG1 percents over 48 h,[3]; 25 μM,32.7%
same,Peak subG1 percents over 48 h,[4]; 10 μM,14.8%
same,Peak subG1 percents over 48 h,[4]; 25 μM,11.2%
same,death in cancer cell lines vs. HDFs,[4]; both concentrations,more death in all cancer cell lines vs. HDFs
same,peak subG1 percent compared to controls,[5]; MCF10A cells,did not cause a significant increase
same,Peak subG1 percents over 48 h,[5]; 10 μM,4.1%
same,Peak subG1 percents over 48 h,[5]; 25 μM,4.2%
same,induction of CA,[6],failed to induce significant CA
same,CA / peak extent of CA versus control levels,[7],neither concentrations of Nos or BN significantly increased CA over control levels
same,extent of CA over controls,[8],did not significantly increase the extent of CA over controls
same,expression levels of Cyclin E and PLK4,[9],surge in the expression levels of Cyclin E and PLK4
"CC(=O)O[C@H]1C(=O)[C@@]2(C)[C@H]([C@H](OC(=O)c3ccccc3)[C@]3(O)C[C@H](OC(=O)[C@H](O)[C@@H](NC(=O)c4ccccc4)c4ccccc4)C(C)=C1C3(C)C)[C@]1(OC(C)=O)CO[C@@H]1C[C@@H]2O [Paclitaxel, paclitaxel]",IC50,[10],50 nM
same,interphase declustering index (DI): ratio of average cluster volume to average cell volume,[11],0.08
same,inhibition of neurite extension,[12],moderate inhibition
same,fragmentation of the interphase Golgi complex,[13],interphase Golgi complex fragmented
same,vinculin localization and focal adhesion points,[14],less severe
